Legend:
cP2X7 = molecular target: T1, cP2X7 (Canis lupus familiaris, UniProt B0FLR1); experiment: ATP-induced ethidium+ uptake in transfected HEK-cP2X7 cells; type: cell-based, canine
T1 sequence (B0FLR1 1-595): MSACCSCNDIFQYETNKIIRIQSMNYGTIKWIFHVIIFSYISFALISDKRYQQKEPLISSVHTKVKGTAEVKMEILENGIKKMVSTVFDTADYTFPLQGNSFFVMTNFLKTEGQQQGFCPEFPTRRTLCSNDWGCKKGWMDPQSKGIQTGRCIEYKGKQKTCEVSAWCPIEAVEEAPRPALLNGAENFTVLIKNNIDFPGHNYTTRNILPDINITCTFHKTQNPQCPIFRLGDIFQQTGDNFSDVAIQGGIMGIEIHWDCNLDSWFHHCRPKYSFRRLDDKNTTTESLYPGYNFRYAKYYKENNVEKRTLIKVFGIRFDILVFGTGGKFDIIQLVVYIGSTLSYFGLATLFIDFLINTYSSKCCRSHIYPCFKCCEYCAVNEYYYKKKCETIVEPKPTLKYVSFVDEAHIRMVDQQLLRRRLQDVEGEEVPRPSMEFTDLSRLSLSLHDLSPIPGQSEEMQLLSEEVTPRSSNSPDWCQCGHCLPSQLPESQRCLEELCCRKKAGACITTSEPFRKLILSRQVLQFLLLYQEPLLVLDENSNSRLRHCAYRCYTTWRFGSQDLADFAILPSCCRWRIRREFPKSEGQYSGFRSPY
Experimental: HEK293 cells were plated at 3.5 × 10^5 cells/well in 2 mL of complete DMEM/F12 medium and incubated (37 °C, 95% air/5% CO2, overnight). Cells were transfected with mP2X7-GFP (HEK-mP2X7), cP2X7-GFP (HEK-cP2X7) or hP2X4-EmGFP (HEK-hP2X4) plasmids, or mock transfected with an equivalent volume of sterile Milli-Q water (Merck Millipore, Burlington, NJ, USA), using Lipofectamine 3000 according to the manufacturer’s instructions. Cells were used for assays 48 h post-transfection. To determine transfection efficiency, cells were washed twice with D-PBS and data collected with an LSR Fortessa X-20 flow cytometer (BD Biosciences). The proportion of GFP positive cells was determined using FlowJo software v8.7.1 (BD Biosciences).
ATP-mediated uptake assays were conducted as described with either ethidium bromide or YO-PRO-1 iodide. Briefly, RPMI8226, HEK-hP2X7, HEK-mP2X7, HEK-cP2X7 or cryopreserved human peripheral blood mononuclear cells (PBMCs) were washed thrice with LDM (300× g, 5 min), resuspended in LDM and 1 × 10^6 cells were added to individual tubes. Cells were pre-incubated in the absence of compound (37 °C, 5 min) or in the presence of compound or vehicle (DMSO) (37 °C, 15 min) as indicated. […] An equal volume of ice-cold Mg^2+ stop solution was added and cells centrifuged (300× g, 5 min). Cells were washed twice in LDM (300× g, 5 min), resuspended and data were collected with an LSR Fortessa X-20 flow cytometer. MFI of ethidium^+ or YO-PRO-1^2+ was determined using FlowJo.

[1] = test system: endogenous hP2Y receptors, including hP2Y1, hP2Y2 and hP2Y4; experiment: Fura-2AM Ca2+ response assay in non-transfected HEK293 cells; type: cell-based, human
Experimental: Ca^2+ response assays were conducted as described. Briefly, HEK293, HEK-hP2X7 or HEK-hP2X4 cells were harvested and plated in black, clear-bottom 96-well plates at 5 × 10^4 cells/well overnight (37 °C, 95% air/5% CO2). Cells were washed with extracellular Ca^2+ solution (ECS) (145 mM NaCl, 2 mM CaCl2, 5 mM KCl, 13 mM glucose and 10 mM HEPES, pH 7.4) and incubated with Fura-2AM loading buffer (2.5 μM Fura-2AM and 0.2% pluronic acid in ECS) (37 °C, 95% air/5% CO2, 30 min, dark). Loading buffer was removed; cells were washed once with ECS and incubated in ECS (37 °C, 95% air/5% CO2, 20 min, dark) to allow Fura-2AM de-esterification. Where indicated, cells were pre-incubated with compound or vehicle (DMSO) (37 °C, 30 min, dark). Fura-2 fluorescence at 510 nm was measured every 5 s using a FlexStation 3 (Molecular Devices, San Jose, CA, USA). […] Data was acquired using SoftMax Pro version 7.0 (Molecular Devices). Relative changes in intracellular Ca^2+ were calculated using the ratio of Fura-2AM fluorescence at 510 nm following excitation at 340 nm and 380 nm (F340nm/380nm). […] Ca^2+ responses over time were plotted in Prism software v8.4.2 (GraphPad Software, La Jolla, CA, USA). To determine relative P2X-mediated Ca^2+ responses, the area under the curve from 100 to 180 s was calculated with GraphPad Prism. To determine P2Y-mediated Ca^2+ responses the area under the curve from 30 to 100 s was calculated. In both cases, ATP-induced responses were calculated by subtracting the corresponding basal response. These responses were normalised to the maximal ATP-induced response within their respective experiment.

hP2X7 = molecular target: T2, hP2X7 (Homo sapiens, UniProt Q99572); experiment: Fura-2AM Ca2+ response assay in HEK-hP2X7 cells; type: cell-based; details: for EC50: EC50 of ATP; for maximum ATP response, Ca2+: increasing ATP
T2 construct: expressed in transfected cells; host or cells: HEK293 cells, stably transfected (HEK-hP2X7)
T2 sequence (Q99572 1-595): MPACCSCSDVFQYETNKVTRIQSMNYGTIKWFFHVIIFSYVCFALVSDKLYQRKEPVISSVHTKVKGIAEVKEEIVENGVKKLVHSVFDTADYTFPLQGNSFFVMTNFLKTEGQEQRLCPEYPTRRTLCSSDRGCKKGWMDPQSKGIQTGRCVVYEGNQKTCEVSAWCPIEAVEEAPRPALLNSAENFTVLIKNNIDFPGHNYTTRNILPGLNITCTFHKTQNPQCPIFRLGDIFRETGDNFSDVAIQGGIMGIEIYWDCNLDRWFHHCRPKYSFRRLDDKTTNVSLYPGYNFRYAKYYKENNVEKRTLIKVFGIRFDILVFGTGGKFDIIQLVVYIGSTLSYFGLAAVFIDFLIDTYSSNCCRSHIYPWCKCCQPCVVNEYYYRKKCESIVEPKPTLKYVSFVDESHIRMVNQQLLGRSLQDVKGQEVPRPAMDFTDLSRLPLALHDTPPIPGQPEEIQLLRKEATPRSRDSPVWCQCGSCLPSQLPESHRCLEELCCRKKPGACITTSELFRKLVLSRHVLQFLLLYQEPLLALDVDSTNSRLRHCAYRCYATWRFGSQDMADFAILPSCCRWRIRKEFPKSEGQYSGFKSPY

NHE1 = test system: NHE1; parameters: method as in PMID 33804289; details: cited from earlier work

Structure (SMILES)	EC50 (cP2X7) [µM]	ATP concentration giving maximum response, ethidium+ uptake (cP2X7; HEK-cP2X7 cells) [mM]	ATP concentration giving maximum Ca2+ response ([1]; HEK293 cells) [µM]	EC50 ([1]; read-out: EC50 of ATP, Ca2+ response, HEK293 cells, AUC 30-100 s) [µM]	EC50 (hP2X7; Ca2+ response, HEK-hP2X7 cells, no antagonist (Figure 2F), AUC 100-180 s) [µM]	EC50 (hP2X7; Ca2+ response, in presence of 0.3 μM 6-FPHMA) [µM]	EC50 (hP2X7; Ca2+ response, in presence of 3 μM 6-FPHMA) [µM]	EC50 (hP2X7; Ca2+ response, in presence of 30 μM 6-FPHMA) [µM]	EC50 (hP2X7; Ca2+ response, pre-incubated with DMSO vehicle (Figure 2H)) [µM]	IC50 (cP2X7; read-out: IC50, cP2X7-mediated dye uptake) [µM]	inhibition at 30 µM (cP2X7; read-out: blockade of cP2X7-mediated dye uptake) [%]	IC50 ([1]; 2.5 μM ATP, AUC 30-100 s, read-out: IC50, endogenous hP2Y-mediated Ca2+ responses) [µM]	inhibition of hP2Y-mediated Ca2+ responses ([1]; 30 μM compound, 2.5 μM ATP) [%]	inhibition of NHE1 (NHE1)	maximum ATP response, Ca2+ (hP2X7; 0.3 μM 6-FPHMA) [%]	maximum ATP response, Ca2+ (hP2X7; 3 μM 6-FPHMA) [%]	maximum ATP response, Ca2+ (hP2X7; 30 μM 6-FPHMA) [%]	blockade of hP2X7-mediated Ca2+ responses (hP2X7; 30 μM compound, 720 μM ATP) [%]	mode of inhibition (hP2X7; Ca2+ response, HEK-hP2X7 cells)	IC50 (hP2X7; read-out: IC50, hP2X7-mediated Ca2+ responses) [µM]
Nc1ncnc2c1ncn2[C@@H]1O[C@H](COP(=O)(O)OP(=O)(O)OP(=O)(O)O)[C@@H](O)[C@H]1O [ATP, adenosine 5′-triphosphate]	424 ± 67	2	300	2.5 ± 1.01	722 ± 76	526 ± 131	857 ± 317	691 ± 151	526 ± 127											
N=C(N)NC(=O)c1nc(-c2cc3cnccc3o2)c(N2CCCCCC2)nc1N [6-FPHMA, 6-furopyridine-substituted 5-(N,N-hexamethylene) amiloride]										1.28 ± 0.47	100	0.33 ± 0.13	97	inhibit	54 ± 7	43 ± 6	5 ± 1	100	non-competitive	0.46 ± 0.14
